According to patent US11566007B2, “Ras inhibitors” (Revolution Medicines, Inc., priority 2019, dated 2023):
Values joined by “and” are separate entries in the source; they are usually repeats but may differ in a detail not shown here. Identical values can stand only once. Like-named read-outs stand apart in the source and are kept apart here.

Experiments:
KRAS G12V = KRAS G12V (Homo sapiens (Human), UniProt P01116+P62937, G12V); test: Ras-Raf (BRAF RBD) disruption / FRET / MOA assay, KRAS G12V; format: biochemical; conditions: read-out: IC50* KRAS G12V FRET data
Sequence of KRAS G12V (P01116-2 other isoform, or with tags, fused parts or gaps G12V): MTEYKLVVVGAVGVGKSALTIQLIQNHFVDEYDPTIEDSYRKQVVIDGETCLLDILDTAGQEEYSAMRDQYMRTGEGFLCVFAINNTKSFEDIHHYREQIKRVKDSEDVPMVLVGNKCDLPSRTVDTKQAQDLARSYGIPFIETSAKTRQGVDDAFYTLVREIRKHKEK
Sequence of KRAS G12V (P62937 whole entry, canonical isoform): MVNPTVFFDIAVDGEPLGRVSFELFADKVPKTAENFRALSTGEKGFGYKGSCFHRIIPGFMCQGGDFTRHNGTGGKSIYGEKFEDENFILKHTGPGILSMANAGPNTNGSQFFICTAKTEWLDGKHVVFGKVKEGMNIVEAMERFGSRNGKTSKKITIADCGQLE
Protocol: (§1) The purpose of this biochemical assay is to measure the ability of test compounds to facilitate ternary complex formation between a nucleotide-loaded Ras isoform and cyclophilin A; the resulting ternary complex disrupts binding to a BRAF^RBD construct, inhibiting Ras signaling through a RAF effector.
(§2) Compound is present in plate wells as a 10-point 3-fold dilution series starting at a final concentration of 30 μM. After incubation at 25° C. for 3 hours, a mixture of Anti-His Eu-W1024 and anti-GST allophycocyanin is then added to assay sample wells at final concentrations of 10 nM and 50 nM, respectively, and the reaction incubated for an additional 1.5 hours. […] Compounds that facilitate disruption of a Ras:RAF complex are identified as those eliciting a decrease in the TR-FRET ratio relative to DMSO control wells.
(§3) This protocol may also be executed substituting other Ras proteins or nucleotides.
(§4) The purpose of this biochemical assay was to measure the ability of test compounds to facilitate ternary complex formation between a nucleotide-loaded K-Ras isoform and Cyclophilin A; the resulting ternary complex disrupts binding to a BRAF^RBD construct, inhibiting K-Ras signaling through a RAF effector. Data is reported as IC50 values.
as §2, with “Compound was” for “Compound is”, “allophycocyanin was” for “allophycocyanin is”, “a K-Ras:RAF” for “a Ras:RAF”, “complex were” for “complex are”

[1] = test system: NCI-H358 cells (K-Ras G12C); test: Potency assay: pERK in NCI-H358 cells; format: cell-based, human; conditions: Homo sapiens, NCI-H358; H358 KRAS G12C; read-out: pERK EC50
How it was run: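 4 h cpd, 37 °C; 10-pt 3-fold series, 10 mM DMSO top stock, duplicates. Readout pERK: AlphaLISA SureFire Ultra or In-Cell Western (IR-800CW secondary, DRAQ5 DNA stain). IC50, 4-PL fit vs log conc.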

K-Ras G13C = K-Ras G13C (Homo sapiens (Human), UniProt P01116+P62937, G13C); test: Ras-Raf (BRAF RBD) disruption / FRET / MOA assay, KRAS G13C; format: biochemical; conditions: KRAS G13C; Ras-Raf disruption/FRET/MOA assay; read-out: IC50* KRAS G13C FRET data
Sequence of K-Ras G13C (P01116-2 other isoform, or with tags, fused parts or gaps G13C): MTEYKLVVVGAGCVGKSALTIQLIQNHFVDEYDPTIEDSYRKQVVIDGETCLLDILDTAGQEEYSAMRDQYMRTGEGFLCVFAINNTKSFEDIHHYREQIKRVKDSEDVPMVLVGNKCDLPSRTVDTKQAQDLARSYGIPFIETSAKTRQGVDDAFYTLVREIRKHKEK
Sequence of K-Ras G13C (P62937 whole entry): as the sequence (P62937 whole entry, canonical isoform) above
Protocol: as §1, §2, §3, §4
as §2, with “Compound was” for “Compound is”, “allophycocyanin was” for “allophycocyanin is”, “a K-Ras:RAF” for “a Ras:RAF”, “complex were” for “complex are”

KRAS G12D = KRAS G12D (Homo sapiens (Human), UniProt P01116+P62937, G12D); test: Ras-Raf (BRAF RBD) disruption / FRET / MOA assay, KRAS G12D; format: biochemical; conditions: Ras-Raf disruption/FRET/MOA assay; class symbols; read-out: KRAS G12D FRET data IC50
Sequence of KRAS G12D (P01116-2 other isoform, or with tags, fused parts or gaps G12D): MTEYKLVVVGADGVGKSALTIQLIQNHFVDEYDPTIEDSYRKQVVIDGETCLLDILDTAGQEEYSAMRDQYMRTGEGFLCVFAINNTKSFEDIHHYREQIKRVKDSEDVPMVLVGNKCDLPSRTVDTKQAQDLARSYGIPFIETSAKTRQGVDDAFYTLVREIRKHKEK
Sequence of KRAS G12D (P62937 whole entry): as the sequence (P62937 whole entry, canonical isoform) above
How it was run: (§5)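 Ternary complex formation (Ras–compound–cyclophilin A) displacing BRAF RBD, monitored by TR-FRET. Three hours at 25° C with compound (top 30 μM final), then 1.5 h with the labelled antibodies. Lower ratio than DMSO indicates disruption; IC50 reported.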

K-Ras G12C = K-Ras G12C (Homo sapiens (Human), UniProt P01116+P62937, G12C); test: Ras-Raf (BRAF RBD) disruption / FRET / MOA assay, KRAS G12C; format: biochemical; conditions: KRAS G12C; Ras-Raf disruption/FRET/MOA assay; read-out: IC50* KRAS G12C FRET data
Sequence of K-Ras G12C (P01116-2 other isoform, or with tags, fused parts or gaps G12C): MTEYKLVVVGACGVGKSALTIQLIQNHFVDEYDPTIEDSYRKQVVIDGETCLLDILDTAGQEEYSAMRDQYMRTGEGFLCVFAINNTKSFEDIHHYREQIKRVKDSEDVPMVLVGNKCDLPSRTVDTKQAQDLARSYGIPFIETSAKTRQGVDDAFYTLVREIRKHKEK
Sequence of K-Ras G12C (P62937 whole entry): as the sequence (P62937 whole entry, canonical isoform) above
Protocol: as §1, §2, §3, §4
as §2, with “Compound was” for “Compound is”, “allophycocyanin was” for “allophycocyanin is”, “a K-Ras:RAF” for “a Ras:RAF”, “complex were” for “complex are”

NCI-H358 (K-Ras G12C) = test: CellTiter-Glo cell viability assay, NCI-H358; format: cell-based, human; conditions: NCI-H358, 5-day treatment, class symbols, read-out: Additional H358 Cell Viability assay data (K-Ras G12C, IC50)
How it was run: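 Viability measured by CellTiter-Glo luminescence on day 5 following direct addition of compound to plated cells. Values expressed as percent of mean DMSO signal; curves fitted with a four-parameter logistic model.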

KRAS G12S = KRAS G12S (Homo sapiens (Human), UniProt P01116+P62937, G12S); test: Ras-Raf (BRAF RBD) disruption / FRET / MOA assay, KRAS G12S; format: biochemical; conditions: Ras-Raf disruption/FRET/MOA assay; class symbols; read-out: KRAS G12S FRET data IC50
Sequence of KRAS G12S (P01116-2 other isoform, or with tags, fused parts or gaps G12S): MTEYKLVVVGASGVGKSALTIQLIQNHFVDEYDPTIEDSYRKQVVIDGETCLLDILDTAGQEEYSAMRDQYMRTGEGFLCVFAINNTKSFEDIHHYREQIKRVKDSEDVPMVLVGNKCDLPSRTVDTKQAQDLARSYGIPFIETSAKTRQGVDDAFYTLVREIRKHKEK
Sequence of KRAS G12S (P62937 whole entry): as the sequence (P62937 whole entry, canonical isoform) above
How it was run: as §5

KRAS WT = KRAS WT (Homo sapiens (Human), UniProt P01116+P62937); test: Ras-Raf (BRAF RBD) disruption / FRET / MOA assay, KRAS WT; format: biochemical; conditions: read-out: IC50* KRAS WT FRET data
Sequence of KRAS WT (P01116-2 other isoform, or with tags, fused parts or gaps): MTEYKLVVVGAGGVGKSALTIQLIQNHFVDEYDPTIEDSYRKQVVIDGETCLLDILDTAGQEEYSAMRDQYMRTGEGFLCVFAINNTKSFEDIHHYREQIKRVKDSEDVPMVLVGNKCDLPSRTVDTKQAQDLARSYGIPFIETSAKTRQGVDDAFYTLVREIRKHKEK
Sequence of KRAS WT (P62937 whole entry): as the sequence (P62937 whole entry, canonical isoform) above
Protocol: as §1, §2, §3, §4
as §2, with “Compound was” for “Compound is”, “allophycocyanin was” for “allophycocyanin is”, “a K-Ras:RAF” for “a Ras:RAF”, “complex were” for “complex are”

With CCn1c(-c2ccccc2CCOC)c2c3cc(ccc31)-c1cc(O)cc(c1)C[C@H](NC(=O)[C@H](C(C)C)N(C)C(=O)c1ccc(NC(=O)/C=C/CN(C)C)nc1)C(=O)N1CCC[C@H](N1)C(=O)OCC(C)(C)C2 [Example A218] the IC50 (KRAS G12V) was 1 to 10 µM and > 10 µM, the EC50 [1] was < 5 µM and the IC50 (K-Ras G13C) was 0.01 to 0.1 µM and 0.1 to 1 µM. The IC50 (KRAS G12D) was 1 to 10 µM, the IC50 (K-Ras G12C) was 0.1 to 1 µM and 1 to 10 µM and the IC50 (NCI-H358 (K-Ras G12C); Homo sapiens, NCI-H358, 120 h) was > 1 µM. For the same compound, the IC50 (KRAS G12S) was > 10 µM and the IC50 (KRAS WT) was > 10 µM.
In the case of C=CC(=O)N1CC[C@H](C(=O)N(C)[C@H](C(=O)N[C@H]2Cc3cc(O)cc(c3)-c3ccc4c(c3)c(c(-c3ccccc3CCOC)n4CC)CC(C)(C)COC(=O)[C@]3(C)CCCN(N3)C2=O)C(C)C)C1 [Example A219], the IC50 (KRAS G12V) is reported as > 10 µM, the EC50 [1] is reported as < 5 µM and the IC50 (K-Ras G13C) is reported as > 10 µM. For the same compound, the IC50 (KRAS G12D) was > 10 µM, the IC50 (K-Ras G12C) was 1 µM to 10 µM (2×) and > 10 µM (2×) and the IC50 (NCI-H358 (K-Ras G12C); Homo sapiens, NCI-H358, 120 h) was 0.1 to 1 µM. The IC50 (KRAS G12S) was > 10 µM and the IC50 (KRAS WT) was > 10 µM.
With CCn1c(-c2ccccc2CCOC)c2c3cc(ccc31)-c1cc(O)cc(c1)C[C@H](NC(=O)[C@H](C(C)C)N(C)C(=O)c1ccc(N(C)C(=O)/C=C/CN(C)C)cc1)C(=O)N1CCC[C@H](N1)C(=O)OCC(C)(C)C2 [Example A220] the IC50 (KRAS G12V) was > 10 µM, the EC50 [1] was < 5 µM and the IC50 (K-Ras G13C) was 0.1 to 1 µM. The IC50 (KRAS G12D) was 1 to 10 µM and > 10 µM, the IC50 (K-Ras G12C) was 0.1 to 1 µM and 1 to 10 µM and the IC50 (NCI-H358 (K-Ras G12C); Homo sapiens, NCI-H358, 120 h) was > 1 µM. For the same compound, the IC50 (KRAS G12S) was > 10 µM and the IC50 (KRAS WT) was > 10 µM.
For CC#CC(=O)N1CC[C@H](C(=O)N(C)[C@H](C(=O)N[C@H]2Cc3cc(O)cc(c3)-c3ccc4c(c3)c(c(-c3ccccc3CCOC)n4CC)CC(C)(C)COC(=O)[C@@H]3CCCN(N3)C2=O)C(C)C)C1 [Example A221], the IC50 (KRAS G12V) was 1 to 10 µM and > 10 µM, the EC50 [1] was < 5 µM and the IC50 (K-Ras G13C) was > 10 µM and 1 to 10 µM. The IC50 (KRAS G12D) was > 10 µM, the IC50 (K-Ras G12C) was 0.1 to 1 µM and > 10 µM and the IC50 (KRAS G12S) was 1 to 10 µM and > 10 µM. For the same compound, the IC50 (KRAS WT) was > 10 µM.
In the case of C=CC(=O)N1CCC2(CC1)CCN([C@H](C(=O)N[C@H]1Cc3cc(O)cc(c3)-c3ccc4c(c3)c(c(-c3ccccc3CCOC)n4CC)CC(C)(C)COC(=O)[C@@H]3CCCN(N3)C1=O)C(C)C)C2=O [Example A222], the IC50 (KRAS G12V) is reported as > 10 µM, the EC50 [1] is reported as < 5 µM and the IC50 (K-Ras G13C) is reported as 0.1 to 1 µM and > 10 µM. The IC50 (KRAS G12D) was > 10 µM, the IC50 (K-Ras G12C) was 0.1 to 1 µM and 1 to 10 µM and the IC50 (KRAS G12S) was > 10 µM. For the same compound, the IC50 (KRAS WT) was 1 to 10 µM and > 10 µM.
C=CC(=O)N1CC[C@H](C(=O)N(C)[C@H](C(=O)N[C@H]2Cc3cc(O)cc(c3)-c3ccc4c(c3)c(c(-c3ccc(OCC(=O)O)cc3)n4CC)CC(C)(C)COC(=O)[C@@H]3CCCN(N3)C2=O)C(C)C)C1 [Example A223] was tested, and the IC50 (KRAS G12V) was 1 to 10 µM and > 10 µM, the IC50 (K-Ras G13C) was > 10 µM and the IC50 (KRAS G12D) was > 10 µM. For the same compound, the IC50 (K-Ras G12C) was 0.1 to 1 µM and > 10 µM, the IC50 (NCI-H358 (K-Ras G12C); Homo sapiens, NCI-H358, 120 h) was > 1 µM and the IC50 (KRAS G12S) was 1 to 10 µM and > 10 µM. The IC50 (KRAS WT) was > 10 µM.
For CCn1c(-c2ccccc2CCOC)c2c3cc(ccc31)-c1cc(O)cc(c1)C[C@H](NC(=O)[C@H](C(C)C)N(C)C(=O)c1ccc(NC(=O)/C=C/CN(C)C)cn1)C(=O)N1CCC[C@H](N1)C(=O)OCC(C)(C)C2 [Example A224], the IC50 (KRAS G12V) was 1 to 10 µM and > 10 µM, the EC50 [1] was < 5 µM and the IC50 (K-Ras G13C) was 0.01 to 0.1 µM and 0.1 to 1 µM. The IC50 (KRAS G12D) was 1 to 10 µM, the IC50 (K-Ras G12C) was 0.1 to 1 µM and 1 to 10 µM and the IC50 (NCI-H358 (K-Ras G12C); Homo sapiens, NCI-H358, 120 h) was > 1 µM. The IC50 (KRAS G12S) was > 10 µM and the IC50 (KRAS WT) was > 10 µM.
For C=CC(=O)N1CC[C@H](C(=O)N(C)[C@H](C(=O)NC2C[C@H]3CN(CCCO3)c3ccc4c(c3)c(c(-c3cccnc3[C@H](C)OC)n4CC)CC(C)(C)COC(=O)[C@@H]3CCCN(N3)C2=O)C(C)C)C1 (stereo partly drawn) [Example A429], the IC50 (KRAS G12D) was > 10 µM, the IC50 (K-Ras G12C) was > 10 µM and the IC50 (NCI-H358 (K-Ras G12C)) was > 1 µM. For the same compound, the IC50 (KRAS G12S) was > 10 µM.
In the case of C=CC(=O)N1CC[C@H](C(=O)N(C)[C@H](C(=O)N[C@H]2Cc3cc(N)cc(c3)-c3ccc4c(c3)c(c(-c3ccccc3CCOC)n4CC)CC(C)(C)COC(=O)[C@@H]3CCCN(N3)C2=O)C(C)C)C1 [Examples A002], the IC50 (KRAS G12D) is reported as > 10 µM, the IC50 (K-Ras G12C) is reported as 1 to 10 µM and the IC50 (KRAS G12S) is reported as > 10 µM.
